In the NIST ThermoML archive (doi:10.1016/j.jct.2007.11.010) one finds mass density data, which are given here for 6 compounds.

For the series the following is noted: 101.33 kPa, Liquid.

± gives the expanded uncertainty stated by the source.

Take `CCCCO` [butan-1-ol]: the mass density is 809.52 ± 0.46 kg/m3 (293.15 K); 805.88 ± 0.47 kg/m3 (298.15 K); 801.99 ± 0.47 kg/m3 (303.15 K); 794.34 ± 0.48 kg/m3 (313.15 K); 786.67 ± 0.5 kg/m3 (323.15 K).
As for `CCC(C)O` (stereo not given) [butan-2-ol], the mass density is, setting by setting: (293.15 K) 805.56 ± 1.3 kg/m3; (298.15 K) 802.43 ± 1.4 kg/m3; (303.15 K) 797.76 ± 1.4 kg/m3; (313.15 K) 790.11 ± 1.4 kg/m3; (323.15 K) 784.92 ± 1.4 kg/m3.
For `CCO` [ethanol], in that order: 788.33 ± 0.49 kg/m3, 784.97 ± 0.5 kg/m3, 780.72 ± 0.5 kg/m3, 772.61 ± 0.52 kg/m3 and 764.14 ± 0.53 kg/m3.
With `CCCO` [propan-1-ol], the mass density (293.15 K) turned out to be 803.56 ± 0.47 kg/m3; the mass density (298.15 K) was found to be 799.71 ± 0.48 kg/m3; the mass density (303.15 K) amounted to 795.58 ± 0.48 kg/m3; the mass density (313.15 K) is on record as 787.34 ± 0.49 kg/m3; the mass density (323.15 K) is recorded as 778.97 ± 0.51 kg/m3.
In the same order, the values of `OCCN1CCOCC1` [4-morpholineethanol] are 1076.58 ± 0.97 kg/m3, 1071.3 ± 0.94 kg/m3, 1066.51 ± 0.92 kg/m3, 1059.19 ± 0.88 kg/m3 and 1052.64 ± 0.84 kg/m3.
`CC(C)O` [propan-2-ol]: the mass density amounted to 785.18 ± 0.5 kg/m3 (293.15 K); 781.31 ± 0.5 kg/m3 (298.15 K); 776.66 ± 0.51 kg/m3 (303.15 K); 767.83 ± 0.52 kg/m3 (313.15 K); 758.71 ± 0.54 kg/m3 (323.15 K).
